Laboratory results from ChEMBL document CHEMBL5291721, “A preclinical secondary pharmacology resource illuminates target-adverse drug reaction associations of marketed drugs” (Nat Commun, 2023).

Experiments:
[1] = target: Bile salt export pump (Homo sapiens, UniProt O95342); assay type: functional
[2] = target: T1, Muscarinic acetylcholine receptor M2 (Homo sapiens, UniProt P08172); assay type: functional, cell-based
T1 sequence (P08172 whole entry): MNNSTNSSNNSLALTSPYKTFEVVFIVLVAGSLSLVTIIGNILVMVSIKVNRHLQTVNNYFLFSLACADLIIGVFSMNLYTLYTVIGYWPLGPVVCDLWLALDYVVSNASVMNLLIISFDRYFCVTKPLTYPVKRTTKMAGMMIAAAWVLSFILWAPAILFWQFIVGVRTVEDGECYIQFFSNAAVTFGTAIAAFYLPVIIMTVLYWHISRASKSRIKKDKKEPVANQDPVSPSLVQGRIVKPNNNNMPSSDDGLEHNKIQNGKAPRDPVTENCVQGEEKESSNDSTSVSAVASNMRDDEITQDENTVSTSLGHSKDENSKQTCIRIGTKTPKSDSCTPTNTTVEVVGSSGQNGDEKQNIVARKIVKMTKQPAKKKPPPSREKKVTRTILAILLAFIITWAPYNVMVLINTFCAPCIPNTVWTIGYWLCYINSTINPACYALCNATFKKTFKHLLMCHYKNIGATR

[3] = target: T2, Alpha-2A adrenergic receptor (Homo sapiens, UniProt P08913); assay type: functional, cell-based
T2 sequence (P08913 whole entry): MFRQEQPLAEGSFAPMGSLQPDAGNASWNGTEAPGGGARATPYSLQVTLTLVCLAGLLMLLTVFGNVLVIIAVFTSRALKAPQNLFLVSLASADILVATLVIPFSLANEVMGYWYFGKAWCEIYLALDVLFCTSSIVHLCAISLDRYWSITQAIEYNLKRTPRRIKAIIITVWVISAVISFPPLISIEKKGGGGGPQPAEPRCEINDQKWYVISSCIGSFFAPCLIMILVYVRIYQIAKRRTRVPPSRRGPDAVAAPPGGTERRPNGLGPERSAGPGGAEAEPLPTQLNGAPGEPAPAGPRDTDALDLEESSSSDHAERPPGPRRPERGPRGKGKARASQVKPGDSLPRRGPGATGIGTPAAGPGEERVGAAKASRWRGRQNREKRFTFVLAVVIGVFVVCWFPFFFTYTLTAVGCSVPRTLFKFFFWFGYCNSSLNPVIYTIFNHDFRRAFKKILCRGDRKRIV

[4] = target: T3, Type-1 angiotensin II receptor (Homo sapiens, UniProt P30556)
T3 sequence (P30556 whole entry): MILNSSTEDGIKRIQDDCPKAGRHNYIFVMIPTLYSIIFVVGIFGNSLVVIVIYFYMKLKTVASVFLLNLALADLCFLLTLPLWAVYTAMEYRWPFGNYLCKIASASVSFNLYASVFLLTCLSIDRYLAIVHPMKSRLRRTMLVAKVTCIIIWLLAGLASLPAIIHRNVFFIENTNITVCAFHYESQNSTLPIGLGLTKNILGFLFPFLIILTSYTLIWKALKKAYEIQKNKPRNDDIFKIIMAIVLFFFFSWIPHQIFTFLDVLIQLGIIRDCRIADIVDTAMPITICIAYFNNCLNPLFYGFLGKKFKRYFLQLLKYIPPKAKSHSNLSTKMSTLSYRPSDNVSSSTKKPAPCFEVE

[5] = target: T4, Adenosine receptor A1 (Homo sapiens, UniProt P30542)
T4 sequence (P30542 whole entry): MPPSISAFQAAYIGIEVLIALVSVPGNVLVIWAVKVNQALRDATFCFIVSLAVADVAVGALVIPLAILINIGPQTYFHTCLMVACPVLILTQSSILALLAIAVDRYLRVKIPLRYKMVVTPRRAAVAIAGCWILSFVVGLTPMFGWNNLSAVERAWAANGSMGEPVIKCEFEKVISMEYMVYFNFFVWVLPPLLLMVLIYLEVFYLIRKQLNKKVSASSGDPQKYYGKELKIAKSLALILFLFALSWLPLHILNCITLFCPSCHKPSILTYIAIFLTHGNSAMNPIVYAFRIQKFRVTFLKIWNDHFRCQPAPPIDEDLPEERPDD

[6] = target: Sodium-dependent dopamine transporter (Homo sapiens, UniProt Q01959)
Sequence of Sodium-dependent dopamine transporter (Q01959 whole entry): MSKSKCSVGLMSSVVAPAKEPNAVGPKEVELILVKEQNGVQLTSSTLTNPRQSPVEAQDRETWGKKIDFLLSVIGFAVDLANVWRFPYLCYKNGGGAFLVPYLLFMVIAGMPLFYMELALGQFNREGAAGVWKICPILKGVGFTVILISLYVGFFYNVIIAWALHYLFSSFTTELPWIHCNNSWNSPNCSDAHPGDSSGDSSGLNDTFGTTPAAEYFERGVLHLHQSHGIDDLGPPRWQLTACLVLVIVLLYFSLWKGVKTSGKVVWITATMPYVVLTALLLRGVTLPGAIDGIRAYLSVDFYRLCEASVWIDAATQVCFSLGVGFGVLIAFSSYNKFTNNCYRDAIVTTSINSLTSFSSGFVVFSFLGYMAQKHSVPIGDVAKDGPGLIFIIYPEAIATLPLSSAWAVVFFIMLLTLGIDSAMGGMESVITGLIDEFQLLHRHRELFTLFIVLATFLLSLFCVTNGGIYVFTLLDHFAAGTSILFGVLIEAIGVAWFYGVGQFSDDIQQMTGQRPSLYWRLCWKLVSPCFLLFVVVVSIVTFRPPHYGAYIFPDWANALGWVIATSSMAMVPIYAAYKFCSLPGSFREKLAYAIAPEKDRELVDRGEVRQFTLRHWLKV

[7] = target: T5, Adenosine receptor A3 (Homo sapiens, UniProt P0DMS8)
T5 sequence (P0DMS8 whole entry): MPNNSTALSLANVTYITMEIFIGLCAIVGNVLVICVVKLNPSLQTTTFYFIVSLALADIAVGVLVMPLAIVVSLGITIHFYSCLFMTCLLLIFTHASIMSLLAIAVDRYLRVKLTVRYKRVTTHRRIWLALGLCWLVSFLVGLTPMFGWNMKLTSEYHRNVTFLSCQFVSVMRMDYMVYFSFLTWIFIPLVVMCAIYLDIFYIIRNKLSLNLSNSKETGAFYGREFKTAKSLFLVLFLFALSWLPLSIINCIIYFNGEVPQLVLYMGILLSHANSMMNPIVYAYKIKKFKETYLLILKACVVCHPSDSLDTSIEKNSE

[8] = target: T6, Amine oxidase [flavin-containing] A (Homo sapiens, UniProt P21397); assay type: functional
T6 sequence (P21397 whole entry): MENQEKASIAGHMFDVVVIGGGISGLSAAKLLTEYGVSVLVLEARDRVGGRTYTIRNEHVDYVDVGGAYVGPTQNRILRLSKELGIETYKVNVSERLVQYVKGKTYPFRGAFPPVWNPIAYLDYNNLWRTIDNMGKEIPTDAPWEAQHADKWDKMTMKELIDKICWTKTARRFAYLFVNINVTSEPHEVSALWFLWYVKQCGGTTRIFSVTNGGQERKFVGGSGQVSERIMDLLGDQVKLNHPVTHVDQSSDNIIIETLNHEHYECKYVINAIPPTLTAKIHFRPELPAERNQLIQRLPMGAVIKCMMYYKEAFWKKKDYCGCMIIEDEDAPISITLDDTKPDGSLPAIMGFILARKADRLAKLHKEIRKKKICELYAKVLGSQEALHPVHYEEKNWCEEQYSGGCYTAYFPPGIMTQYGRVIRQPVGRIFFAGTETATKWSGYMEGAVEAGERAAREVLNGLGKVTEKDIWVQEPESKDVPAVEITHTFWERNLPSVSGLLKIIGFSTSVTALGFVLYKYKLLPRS
Further: assay procedure not described here.

Sequence of Bile salt export pump (O95342 whole entry): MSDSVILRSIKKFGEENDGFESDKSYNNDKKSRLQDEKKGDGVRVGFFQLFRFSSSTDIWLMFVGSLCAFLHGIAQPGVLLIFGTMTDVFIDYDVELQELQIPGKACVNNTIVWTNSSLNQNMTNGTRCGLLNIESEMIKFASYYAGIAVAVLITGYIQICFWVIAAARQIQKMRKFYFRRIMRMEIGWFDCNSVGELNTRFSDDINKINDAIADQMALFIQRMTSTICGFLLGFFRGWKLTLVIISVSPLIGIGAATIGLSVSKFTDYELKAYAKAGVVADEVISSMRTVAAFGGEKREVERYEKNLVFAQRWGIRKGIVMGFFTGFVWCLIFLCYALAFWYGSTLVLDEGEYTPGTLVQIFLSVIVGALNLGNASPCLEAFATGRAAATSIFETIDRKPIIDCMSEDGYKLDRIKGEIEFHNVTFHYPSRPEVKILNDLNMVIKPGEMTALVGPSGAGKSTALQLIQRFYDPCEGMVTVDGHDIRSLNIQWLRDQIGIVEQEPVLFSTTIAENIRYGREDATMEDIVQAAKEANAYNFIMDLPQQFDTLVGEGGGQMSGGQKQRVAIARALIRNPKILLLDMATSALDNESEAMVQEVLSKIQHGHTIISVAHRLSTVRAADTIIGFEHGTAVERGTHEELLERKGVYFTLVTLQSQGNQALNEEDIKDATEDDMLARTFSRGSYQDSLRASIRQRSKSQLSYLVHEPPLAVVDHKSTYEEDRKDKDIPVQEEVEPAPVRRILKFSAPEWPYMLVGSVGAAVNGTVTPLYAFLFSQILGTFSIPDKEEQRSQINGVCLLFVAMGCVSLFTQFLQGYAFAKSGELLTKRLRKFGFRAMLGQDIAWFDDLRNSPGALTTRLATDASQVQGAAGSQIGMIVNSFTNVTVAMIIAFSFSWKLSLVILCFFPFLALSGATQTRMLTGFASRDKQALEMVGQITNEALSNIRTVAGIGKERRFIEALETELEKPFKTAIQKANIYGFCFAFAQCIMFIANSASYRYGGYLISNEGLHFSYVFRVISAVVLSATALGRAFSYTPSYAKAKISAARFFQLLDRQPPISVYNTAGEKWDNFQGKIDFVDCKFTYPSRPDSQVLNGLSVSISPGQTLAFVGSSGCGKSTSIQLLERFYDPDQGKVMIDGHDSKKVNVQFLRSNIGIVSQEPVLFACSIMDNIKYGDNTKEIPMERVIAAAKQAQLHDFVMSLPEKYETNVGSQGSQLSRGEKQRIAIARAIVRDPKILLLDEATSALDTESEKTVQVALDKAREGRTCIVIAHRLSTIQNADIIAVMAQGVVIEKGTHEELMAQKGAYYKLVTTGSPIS

Compound	AC50 [1] [µM]	AC50 [2] [µM]	AC50 [3] [µM]	AC50 [4] [µM]	AC50 [5] [µM]	AC50 [6] [µM]	AC50 [7] [µM]	AC50 [8] [µM]
CCCCN1C[C@H](O)[C@@H](O)[C@H](O)[C@H]1CO	> 300	> 30	> 30	> 30	> 30	> 30	> 30	> 30
CN(C)CCC=C1c2ccccc2C(C)(C)c2ccccc21	130	> 10	6.7	> 30	> 30	> 30	> 30	> 30
CCOC(=O)[C@H](CCc1ccccc1)N[C@@H](C)C(=O)N1[C@H](C(=O)O)C[C@@H]2CCC[C@@H]21	> 300	> 10	> 10	> 30	> 30	> 10	> 30	> 10
Nc1nc(NC2CC2)c2ncn([C@H]3C=C[C@@H](CO)C3)c2n1 [ABACAVIR]	> 300	> 30	> 30	> 30	> 30	> 30	> 30	> 30
CC(=O)NCCCS(=O)(=O)O [ACAMPROSATE]	> 300	> 30	> 30	> 30	> 30	> 30	> 30	> 30
CC(=O)Nc1ccc(O)cc1 [ACETAMINOPHEN]	> 300	> 30	> 30	> 30	> 30	> 30	> 30	> 30
CCCSc1ccc2nc(NC(=O)OC)[nH]c2c1 [ALBENDAZOLE]	> 300	> 10	> 10	> 10	> 10	> 30	> 30	> 10
C=CCc1ccccc1OCC(O)CNC(C)C (centres undefined) [ALPRENOLOL]	–	> 30	> 30	> 30	> 30	> 30	> 30	> 30
COC(c1ccccc1)(c1ccccc1)[C@H](Oc1nc(C)cc(C)n1)C(=O)O [AMBRISENTAN]	200	–	–	–	–	–	–	–
CCc1oc2ccccc2c1C(=O)c1cc(I)c(O)c(I)c1 [BENZIODARONE]	6.3	–	–	–	–	–	–	–
CC(C)C[C@H]1C(=O)N2CCC[C@H]2[C@]2(O)O[C@](NC(=O)[C@@H]3C=C4c5cccc6[nH]c(Br)c(c56)C[C@H]4N(C)C3)(C(C)C)C(=O)N12 [BROMOCRIPTINE]	1.6	28	–	> 30	> 30	> 30	6.81	> 30
CC1=C(C(=O)O)N2C(=O)[C@@H](NC(=O)[C@H](N)c3ccccc3)[C@H]2SC1 [CEPHALEXIN ANHYDROUS]	> 300	–	> 30	> 30	> 30	–	> 30	> 10
C[N+](C)(C)CCO [CHOLINE]	> 300	–	–	–	–	–	–	–
CN(C)CC(c1ccc(O)cc1)C1(O)CCCCC1 (centres undefined) [DESVENLAFAXINE]	> 300	–	–	–	–	–	–	–
O=C(Cc1ccc(-c2ccccc2)cc1)Nc1ccccn1 [DIFENPIRAMIDE]	–	> 30	> 30	–	–	–	–	> 30
O=C(O)c1cc(O)ccc1O [GENTISIC ACID]	> 300	–	–	–	–	–	–	–
